Values of other authors, collected in patent US20150376254A1, “GAMMA-MSH ANALOGUES” (TXP Pharma GmbH, priority 2014, published 2015).

Experiments:
[1] = tested on: normal human lung fibroblasts (NHLF); conditions: TGFβ1-induced NHLF; at higher doses; detailed in U.S. provisional application 61/785,631
MC5r = MC5r (Homo sapiens, UniProt P33032); conditions: J. Med. Chem. 2005, 48, 1839-1848
MC3r = MC3r (Homo sapiens, UniProt P41968); conditions: relative to MC4r; J. Med. Chem. 2005, 48, 1839-1848
Chain of MC3r (P41968 whole entry): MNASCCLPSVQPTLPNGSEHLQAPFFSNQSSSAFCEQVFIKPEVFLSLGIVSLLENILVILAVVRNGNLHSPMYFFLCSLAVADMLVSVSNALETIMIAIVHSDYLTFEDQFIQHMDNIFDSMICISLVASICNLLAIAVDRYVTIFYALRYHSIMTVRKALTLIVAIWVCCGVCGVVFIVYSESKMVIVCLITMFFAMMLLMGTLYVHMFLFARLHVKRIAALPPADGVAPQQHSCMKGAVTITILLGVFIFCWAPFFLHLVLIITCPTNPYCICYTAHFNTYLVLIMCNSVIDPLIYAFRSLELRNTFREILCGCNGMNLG

Chain of MC5r (P33032 whole entry): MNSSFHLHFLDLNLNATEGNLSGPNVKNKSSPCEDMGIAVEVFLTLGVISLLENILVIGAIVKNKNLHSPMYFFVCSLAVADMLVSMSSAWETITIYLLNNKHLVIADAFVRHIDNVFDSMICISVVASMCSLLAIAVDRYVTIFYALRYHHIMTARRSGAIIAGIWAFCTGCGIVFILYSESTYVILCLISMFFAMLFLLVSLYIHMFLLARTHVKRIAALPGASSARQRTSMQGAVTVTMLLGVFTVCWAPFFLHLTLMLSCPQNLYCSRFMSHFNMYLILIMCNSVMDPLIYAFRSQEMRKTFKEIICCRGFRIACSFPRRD

Row | binding affinity against the MC5r (MC5r) | affinity to the MC3r (MC3r) | Substance | ECM collagen [1]
1 | – | – | ACTH: adrenocorticotropic hormone, a melanocortin peptide primarily binding MC2R (SYSMEHFRWGKPVGKKRRPVKVYPNGAEDESAEAFPLEF; Corticotropin; UniProt P01189 138-176, looked up) | statistically significant reduction
2 | weak | higher affinity | γ-MSH | –
